Source: patent publication US5500344A, “Serine protease and uses thereof” (The United States of America as represented by the …, priority 1992, dated 1996)
Starred links: 1 amine or outer side, 2 acyl side, 3 side chain; linkers in the order of their positions; H or OH if unused. Non-standard residues stand in square brackets, D forms with d. Residues, ends and D or L forms follow the SMILES beside them. *: point of attachment. Suc = O=C(CCC(=O)[*:2])[*:1]; Nle = CCCC[C@H](N)C(=O)O; Boc = CC(C)(C)OC(=O)*; SBn = c1ccc(CS*)cc1

T1: Boc-Ala-Ala-Asp-SBzl
T1 sequence (peptide, N-terminal Boc; C-terminal thiobenzyl ester (SBzl)): AAD

T2: Boc-Ala-Ala-Met-SBzl
T2 sequence (peptide, N-terminal Boc; C-terminal thiobenzyl ester (SBzl)): AAM

T3: Boc-Ala-Ala-Ser-SBzl
T3 sequence (peptide, N-terminal Boc; C-terminal thiobenzyl ester (SBzl)): AAS

T4: Suc-Phe-Leu-Phe-SBzl
T4 sequence (peptide, N-terminal Suc; C-terminal thiobenzyl ester (SBzl)): FLF

T5: Asp-ase (Rattus norvegicus, UniProt P18291)
T5 construct: Asp-ase purified by HPLC as previously described; endogenous in cells; host or cells: rat RNK LGL leukemia cells, cytolytic granules, HPLC-purified (Sayers et al. 1992)
T5 sequence (P18291 21-248): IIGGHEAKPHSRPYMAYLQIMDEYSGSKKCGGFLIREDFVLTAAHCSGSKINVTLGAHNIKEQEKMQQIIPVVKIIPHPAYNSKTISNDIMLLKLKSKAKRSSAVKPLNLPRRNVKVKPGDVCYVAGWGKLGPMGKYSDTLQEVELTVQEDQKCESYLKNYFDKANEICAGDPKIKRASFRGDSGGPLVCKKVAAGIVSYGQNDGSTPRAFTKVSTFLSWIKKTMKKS

T6: Tryptase (Rattus norvegicus, UniProt P49864)
T6 construct: The BLT-esteraseactivity was found in fractions 49 and 56; endogenous in cells; host or cells: rat RNK-16 NK/LGL leukemia cells, cytolytic granules, HPLC fraction 56
T6 sequence (P49864 26-258): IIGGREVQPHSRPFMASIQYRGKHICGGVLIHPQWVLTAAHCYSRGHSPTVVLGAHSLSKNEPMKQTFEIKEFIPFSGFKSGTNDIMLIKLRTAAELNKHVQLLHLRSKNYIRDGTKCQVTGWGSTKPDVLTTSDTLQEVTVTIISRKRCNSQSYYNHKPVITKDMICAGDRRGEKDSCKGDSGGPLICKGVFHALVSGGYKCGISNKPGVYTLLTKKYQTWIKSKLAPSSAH

T7: Met-ase (Rattus norvegicus, UniProt Q03238)
T7 construct: endogenous in cells; host or cells: rat RNK-16 LGL leukemia cells, cytolytic granules, HPLC fraction 104
T7 sequence (Q03238 21-258 limits assumed): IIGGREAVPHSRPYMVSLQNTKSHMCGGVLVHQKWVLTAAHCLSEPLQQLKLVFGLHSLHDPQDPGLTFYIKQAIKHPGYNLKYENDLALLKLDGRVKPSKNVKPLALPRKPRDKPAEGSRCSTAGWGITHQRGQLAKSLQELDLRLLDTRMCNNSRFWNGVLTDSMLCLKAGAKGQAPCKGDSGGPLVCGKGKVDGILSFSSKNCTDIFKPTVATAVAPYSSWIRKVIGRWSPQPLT

T8: Boc-Ala-Ala-Leu-SBzl
T8 sequence (peptide, N-terminal Boc; C-terminal thiobenzyl ester (SBzl)): AAL

T9: Suc-Ala-Ala-Met-SBzl
T9 sequence (peptide, N-terminal Suc; C-terminal thiobenzyl ester (SBzl)): AAM

B1: RNK-Met-1 (enzyme)
chain: T7 sequence (Q03238 21-258 limits assumed)

Tests used:
Boc-Ala-Ala-Asp-SBzl = target: T1, Boc-Ala-Ala-Asp-SBzl
Boc-Ala-Ala-Met-SBzl = target: T2, Boc-Ala-Ala-Met-SBzl
Boc-Ala-Ala-Ser-SBzl = target: T3, Boc-Ala-Ala-Ser-SBzl
Suc-Phe-Leu-Phe-SBzl = target: T4, Suc-Phe-Leu-Phe-SBzl
Asp-ase = target: T5, Asp-ase; assay: Initial rates of peptide thiobenzyl ester substrate hydrolysis by HPLC-purified Asp-ase; assay type: biochemical; conditions: [S] 100-133 μM, 0.1 M Hepes, 0.01 M CaCl2, pH 7.5, 8% Me2SO, 25° C.
Procedure: (§1) Briefly, 50 μl of sample was added to 100 μl of 1 mM DTNB, made up in 10 mM Hepes, 1 mM CaCl2, 1 mM MgCl2, pH7.2. The reaction was initiated by the addition of 50 μl of BLT (Sigma) to give a final concentration of 500 μM. For Metase determinations, 50 μl of dilutions of the sample in 0.1M Hepes, 0.05M CaCl2, pH7.5 were added to 100 μl of 1 mM DTNB and the reaction was initiated by the addition of 50 μl of Boc-Ala-Ala-Met-S Benzyl (Bzl) to give a final concentration of 150 μM. The duration of the assay depended on color development, the rate of which was measured (0.D410) on a Dynatech MR 5000 microplate reader. Controls of sample and DTNB alone or DTNB and substrate alone were run. For more sensitive comparisons of enzymatic activities, peptide thiobenzyl ester substrates were used to measure protease activities. The chymase substrate Suc-Phe-Leu-Phe-SBzl was purchased from BACHEM Bioscience Inc., Philadelphia, Pa. […] Boc-Ala-Ala-Asp-SBzl is the substrate for Asp-ase and peptide thiobenzyl esters containing Met, Leu or Nle are substrates for Met-ase SP. […] The initial rates were measured at 324 nm using a Beckman 35 spectrophotometer when 10-25 μl of an enzyme stock solution was added to a cuvette containing 2.0 ml of buffer, 150 μl of 4,4'-dithiodipyridine and 25 μl of substrate. The same volume of substrate and 4,4'-dithiodipyridine were added to the reference cell in order to compensate for the background hydrolysis rate of the substrates. Initial rates were measured in duplicate for each substrate concentration and were averaged in each case.
(§2) 10 μl of enzyme solution was added to […]

Tryptase = target: T6, Tryptase; assay: Initial rates of peptide thiobenzyl ester substrate hydrolysis by HPLC-purified Tryptase (HPLC fraction 56); assay type: biochemical; conditions: [S] 100-133 μM, pH 7.5, 25° C.
Procedure: as §1, §2

Met-ase = target: T7, Met-ase; assay: Initial rates of peptide thiobenzyl ester substrate hydrolysis by HPLC-purified Met-ase (HPLC fraction 104); assay type: biochemical; conditions: [S] 100-133 μM, pH 7.5, 25° C.
Procedure: as §1, §2

Boc-Ala-Ala-Leu-SBzl = target: T8, Boc-Ala-Ala-Leu-SBzl
Suc-Ala-Ala-Met-SBzl = target: T9, Suc-Ala-Ala-Met-SBzl
[1] = Met-ase activity of fractions on purification from RNK granules; assay type: biochemical, rat
Procedure: The protease of the present invention is purified to homogeneity sufficient to be sequenced and is at least about 90% pure. At this purity level, the protease has a Met-ase activity of about 156 nM/sec/μg without the intentional addition of other substances such as other proteins or carriers. The assay for measuring this activity was performed as described in the Experimental Details section. The specific activity, however, depends on the degeneracy and folding of the protease and may be as low as about 100 nM/sec/μg to as high as about 200 nM/sec/μg.
Assay of Proteases. Thiobenzylester substrates were used to measure protease activities. For monitoring enzyme activities from granules and column fractions, assays were performed at room temperature using 0.5 mM 5,5'-dithiobis-(2-nitrobenzoic acid) (DTNB) (Sigma) to detect the HSBzl leaving group (e410 =13600M-^-1 cm^-1).
BLT-esterase activity was estimated using a microtiter assay (Green, G. D. J., and Shaw, E. Anal. Biochem. 93:223-226 (1979)). Briefly, 50 μl of sample was added to 100 μl of 1 mM DTNB, made up in 10 mM Hepes, 1 mM CaCl2, 1 mM MgCl2, pH7.2. The reaction was initiated by the addition of 50 μl of BLT (Sigma) to give a final concentration of 500 μM. For Metase determinations, 50 μl of dilutions of the sample in 0.1M Hepes, 0.05M CaCl2, pH7.5 were added to 100 μl of 1 mM DTNB and the reaction was initiated by the addition of 50 μl of Boc-Ala-Ala-Met-S Benzyl (Bzl) to give a final concentration of 150 μM. The duration of the assay depended on color development, the rate of which was measured (0.D410) on a Dynatech MR 5000 microplate reader. Controls of sample and DTNB alone or DTNB and substrate alone were run. For more sensitive comparisons of enzymatic activities, peptide thiobenzyl ester substrates were used to measure protease activities. The chymase substrate Suc-Phe-Leu-Phe-SBzl was purchased from BACHEM Bioscience Inc., Philadelphia, Pa. Z-Arg-SBzl (the tryptase substrate, Kam, C-M., et al. J. Biol. Chem. 262:3444-3451 (1987)); Boc-Ala-Ala-AA-SBzl (AA=Asp, Met, Leu, Nle, or Ser) and Suc-Ala-Ala-Met-SBzl (Odake, S., et al. Biochemistry 30:2217-2227 (1991); Harper, J. W., et al. Biochemistry 23:2995-3002 (1984)) were synthesized previously. Boc-Ala-Ala-Asp-SBzl is the substrate for Asp-ase and peptide thiobenzyl esters containing Met, Leu or Nle are substrates for Met-ase SP. Assays were performed at room temperature in 0.1M, Hepes buffer, pH7.5, containing 0.01M CaCl2 and 8% Me2 SO using 0.34 mM 4,4'-dithiodipyridine (Aldrithiol-4, Aldrich Chemical Co., Milwaukee, Wis.) to detect HSBzl leaving group that reacts with 4,4'-dithiodipyridine to release thiopyridone (ε324=19800M^-1 cm^-1, Grasetti, D. R. and Murray, J. F. Arch. Biochem. Biophys. 119:41-49 (1967)). The initial rates were measured at 324 nm using a Beckman 35 spectrophotometer when 10-25 μl of an enzyme stock solution was added to a cuvette containing 2.0 ml of buffer, 150 μl of 4,4'-dithiodipyridine and 25 μl of substrate. The same volume of substrate and 4,4'-dithiodipyridine were added to the reference cell in order to compensate for the background hydrolysis rate of the substrates. Initial rates were measured in duplicate for each substrate concentration and were averaged in each case. Substrate concentrations were 100-133 μM.

[2] = 10 μl enzyme solution (HPLC fraction 56)
[3] = 10 μl enzyme solution (HPLC fraction 104)
[4] = 25 μl enzyme solution (HPLC fraction 104)

Row | Molecule | Initial Rates, Asp-ase (Asp-ase; 10 μl enzyme solution) [nM/s] | Initial Rates, Tryptase (Tryptase; [2]) [nM/s] | Initial Rates, Met-ase (Met-ase; [3]) [nM/s] | Initial Rates, Met-ase (Met-ase; [4]) [nM/s] | also measured
1 | Asp-ase (RNKP-1) (from UniProt P18291) (enzyme) |  |  |  |  | Initial Rates (Boc-Ala-Ala-Asp-SBzl): 12.6 nM/s; Initial Rates (Boc-Ala-Ala-Met-SBzl): 0 nM/s; Initial Rates (Boc-Ala-Ala-Ser-SBzl): 1.3 nM/s; Initial Rates (Suc-Phe-Leu-Phe-SBzl): 0 nM/s
2 | C[C@H](NC(=O)OC(C)(C)C)C(=O)N[C@@H](C)C(=O)N[C@@H](CO)C(=O)SCc1ccccc1 [Boc--Ala--Ala--Ser--SBz1] (Boc-Ala-Ala-Ser-SBn) | 1.3 | 0.4 | 0 |  | Initial Rates, Asp-ase (Asp-ase; 25 μl enzyme solution): 6.7 nM/s
3 | CCCC[C@H](NC(=O)[C@H](C)NC(=O)[C@H](C)NC(=O)OC(C)(C)C)C(=O)SCc1ccccc1 [Boc--Ala--Ala--Nle--SBz1] (Boc-Ala-Ala-[Nle]-SBn) |  |  | 3.9 | 15.2 | 
4 | CSCC[C@H](NC(=O)[C@H](C)NC(=O)[C@H](C)NC(=O)OC(C)(C)C)C(=O)SCc1ccccc1 [Boc--Ala--Ala--Met--SBz1, Boc-Ala-Ala-Met-S Benzyl (Bzl)] (Boc-Ala-Ala-Met-SBn) | 0 | 0 | 4.2 | 13.7 | 
5 | N=C(N)NCCC[C@H](NC(=O)OCc1ccccc1)C(=O)SCc1ccccc1 [Z--Arg--SBz1, Z-Arg-SBzl] | 0 | 22.7 | 0 |  | Initial Rates, Tryptase (Tryptase; 25 μl enzyme solution (HPLC fraction 56)): 93.4 nM/s
6 | C[C@H](NC(=O)OC(C)(C)C)C(=O)N[C@@H](C)C(=O)N[C@@H](CC(=O)O)C(=O)SCc1ccccc1 [Boc--Ala--Ala--Asp--SBz1, Boc-Ala-Ala-Asp-SBzl] (Boc-Ala-Ala-Asp-SBn) | 12.6 | 0 | 0 |  | Initial Rates, Asp-ase (Asp-ase; 25 μl enzyme solution): 44.6 nM/s
7 | CC(C)C[C@H](NC(=O)[C@H](C)NC(=O)[C@H](C)NC(=O)OC(C)(C)C)C(=O)SCc1ccccc1 [Boc--Ala--Ala--Leu--SBz1] (Boc-Ala-Ala-Leu-SBn) |  |  | 2.9 |  | 
8 | CSCC[C@H](NC(=O)[C@H](C)NC(=O)[C@H](C)NC(=O)CCC(=O)O)C(=O)SCc1ccccc1 [Suc--Ala--Ala--Met--SBz1, Suc-Ala-Ala-Met-SBzl] (Suc-Ala-Ala-Met-SBn) |  |  |  | 10.1 | 
9 | CC(C)C[C@H](NC(=O)[C@H](Cc1ccccc1)NC(=O)CCC(=O)O)C(=O)N[C@@H](Cc1ccccc1)C(=O)SCc1ccccc1 [Suc--Phe--Leu--Phe--SBz1, Suc-Phe-Leu-Phe-SBzl] (Suc-Phe-Leu-Phe-SBn) | 0 | 0 | 0 |  | 
10 | B1 |  |  |  |  | Initial Rates (Boc-Ala-Ala-Asp-SBzl): 0 nM/s; Initial Rates (Boc-Ala-Ala-Leu-SBzl): 2.9 nM/s; Initial Rates (Boc-Ala-Ala-Met-SBzl): 4.2 nM/s; Initial Rates (Boc-Ala-Ala-Nle-SBzl): 3.9 nM/s; Initial Rates (Boc-Ala-Ala-Ser-SBzl): 0 nM/s; Initial Rates (Suc-Ala-Ala-Met-SBzl): 10.1 nM/s; Initial Rates (Suc-Phe-Leu-Phe-SBzl): 0 nM/s; Increase in the specific activity on purification to homogeneity from the granule extract [1]: 29 fold; Rate ([1]; Met-ase rate, protein in assay 10, 3.4, 1.3, 0.1 μg by fraction): 17 nM/s; Specific Activity ([1]; Met-ase, purification step): 156.0 nM/sec/μg protein; Met-ase activity ([1]; protease at least about 90% pure, no added proteins or carriers): about 156 nM/sec/μg; Total ([1]; total Met-ase activity of the fraction): 2,807 nM/sec
